Experimental data from the NIST ThermoML archive (doi:10.1016/j.jct.2005.10.011).

Columns and labels:
[1] = xn = mol fraction of the nth substance listed; conditions: 298.15 K, 101 kPa, Liquid
[2] = isobaric coefficient of expansion; conditions: 298.15 K; 101.33 kPa; Liquid; vibrating tube densimeter
[3] = 298.15 K, 101.33 kPa, Liquid; for viscosity: Capillary tube (Ostwald / Ubbelohde) method

CCCCC [pentane] + Cc1ccccc1
[1]
Conditions | mass density [kg/m3]
x2 = 0.0415 | 629.87
x2 = 0.2011 | 668.27
x2 = 0.2799 | 687.21
x2 = 0.3647 | 707.61
x2 = 0.4341 | 724.3
x2 = 0.6011 | 764.45
x2 = 0.6821 | 783.95
x2 = 0.7502 | 800.32
x2 = 0.8213 | 817.43
x2 = 0.9137 | 839.65

Cc1ccccc1 [toluene] + CCCCCCC
[1]
Conditions | mass density [kg/m3]
x1 = 0.0398 | 678.24
x1 = 0.1999 | 693.04
x1 = 0.2791 | 721.62
x1 = 0.3596 | 736.18
x1 = 0.4416 | 764.46
x1 = 0.6048 | 779.21
x1 = 0.6825 | 793.71
x1 = 0.7593 | 808.12
x1 = 0.8463 | 823.09
x1 = 0.9132 | 837.25

CCCCCC [hexane]
Conditions | isobaric coefficient of expansion | mass density [kg/m3] | viscosity [mPa·s]
[2] | 0.00138 1/K | – | –
[3] | – | 655.07 | 0.295

CCCCCCCCCC [decane] + Cc1ccccc1
[1]
Conditions | mass density [kg/m3]
x2 = 0.0405 | 730.61
x2 = 0.1975 | 740.67
x2 = 0.2817 | 747.82
x2 = 0.3619 | 755.75
x2 = 0.4394 | 764.48
x2 = 0.6 | 785.86
x2 = 0.6811 | 798.34
x2 = 0.7615 | 811.84
x2 = 0.84 | 826.07
x2 = 0.92 | 841.69

Cc1ccccc1 [toluene]
Conditions | isobaric coefficient of expansion | mass density [kg/m3] | viscosity [mPa·s]
[2] | 0.00109 1/K | – | –
[3] | – | 862.19 | 0.552

CCCCCCCCCC [decane]
Conditions | isobaric coefficient of expansion | mass density [kg/m3] | viscosity [mPa·s]
[2] | 0.00104 1/K | – | –
[3] | – | 726.29 | 0.861

CCCCCC [hexane] + Cc1ccccc1
[1]
Conditions | mass density [kg/m3]
x2 = 0.0406 | 657.47
x2 = 0.2028 | 690.93
x2 = 0.2804 | 706.95
x2 = 0.3596 | 723.29
x2 = 0.4423 | 740.35
x2 = 0.5997 | 772.81
x2 = 0.6757 | 788.5
x2 = 0.7597 | 805.83
x2 = 0.8412 | 822.63
x2 = 0.9199 | 838.87

CCCCCCCCC [nonane] + Cc1ccccc1
[1]
Conditions | mass density [kg/m3]
x2 = 0.0396 | 719.17
x2 = 0.1938 | 731.3
x2 = 0.2815 | 739.97
x2 = 0.3621 | 749.08
x2 = 0.4429 | 759.3
x2 = 0.6 | 782.29
x2 = 0.6627 | 792.62
x2 = 0.7595 | 809.87
x2 = 0.8399 | 825.37
x2 = 0.9168 | 841.23

CCCCCCCCC [nonane]
Conditions | isobaric coefficient of expansion | mass density [kg/m3] | viscosity [mPa·s]
[2] | 0.00108 1/K | – | –
[3] | – | 714.01 | 0.665

CCCCCCCC [octane] + Cc1ccccc1
[1]
Conditions | mass density [kg/m3]
x2 = 0.0398 | 692.41
x2 = 0.1999 | 718.64
x2 = 0.2791 | 731.62
x2 = 0.3596 | 744.8
x2 = 0.4416 | 758.23
x2 = 0.6048 | 784.96
x2 = 0.6825 | 797.69
x2 = 0.7593 | 810.27
x2 = 0.8463 | 824.52
x2 = 0.9132 | 835.49

CCCCCCC [heptane]
Conditions | isobaric coefficient of expansion | mass density [kg/m3] | viscosity [mPa·s]
[2] | 0.00124 1/K | – | –
[3] | – | 679.69 | 0.395

CCCCCCCC [octane]
Conditions | isobaric coefficient of expansion | mass density [kg/m3] | viscosity [mPa·s]
[2] | 0.00115 1/K | – | –
[3] | – | 698.59 | 0.514

CCCCC [pentane]
Conditions | isobaric coefficient of expansion | mass density [kg/m3] | viscosity [mPa·s]
[2] | 0.0016 1/K | – | –
[3] | – | 621.22 | 0.216
